Test results as given in patent US20250339433A1, “PHARMACEUTICAL COMPOSITION FOR PREVENTION, ALLEVIATION, OR TREATMENT OF CANCER” (JBKLAB CO.,LTD., priority 2021, published 2025).

Legend:
[1] = tested on: Huh-7; experiment: Combination with sorafenib, cell viability / caspase-3 activity; type: cell-based, human
Procedure: (§1) Human liver cancer cell lines (SK Hep1 and Huh-7) were treated with control (no treatment), 5 μM of the compound of Example 1, 0.1 μM of sorafenib, and 5 μM of the compound of Example 1/0.1 μM of sorafenib, and the cell viability of SK Hep1 and Huh-7 was confirmed.

[2] = tested on: SK Hep1; experiment: as above; type: cell-based, human
Procedure: as §1

[3] = tested on: BT20; experiment: Breast cancer cell viability assay (WST-8); type: cell-based, human; settings: dose dependently
Procedure: (§2) An experiment was performed to confirm the growth inhibitory effect of the compounds of Examples 1 and 2, the active ingredients of the pharmaceutical composition of the present invention, on breast cancer cell lines through cell viability assay.
(§3) Specifically, the cell viability assay was performed as follows. BT20, a human-derived breast cancer cell line, and MDA-MB-231, a TNBC cell line, were each seeded in 96-well plates at the density of 5×10^3 cells/well and cultured for 24 hours. […] At the end of the culture, 100 μl of WST-8 solution was added to each well of the plate, and the absorbance was measured with a microplate reader using a 450 nm optical filter to measure the formazan produced by the reducing factors in living cells.

[4] = tested on: MDA-MB-231; experiment: Breast cancer cell viability assay (WST-8); type: cell-based, human; settings: dose dependently
Procedure: as §2, §3

[5] = tested on: MDA-MB-453; experiment: Breast cancer cell viability assay (WST-8); type: cell-based; settings: MDA-MB-453, 24 hours, dose dependently
Procedure: Specifically, the cell viability assay was performed as follows. BT20, a human-derived breast cancer cell line, and MDA-MB-231, a TNBC cell line, were each seeded in 96-well plates at the density of 5×10^3 cells/well and cultured for 24 hours. Then, I-bet 762 and the compounds were treated thereto at different concentrations and cultured for 48 hours. At the end of the culture, 100 μl of WST-8 solution was added to each well of the plate, and the absorbance was measured with a microplate reader using a 450 nm optical filter to measure the formazan produced by the reducing factors in living cells.
FIGS. 10A and 10B show the cell viability of MDA-MB-231, MDA-MB-453, and BT-20 after 24 hours of treatment with the compound of Example 3.

[6] = tested on: OVCAR-3; experiment: Combination with cisplatin, cell viability; type: cell-based, human
Procedure: (§4) Human ovarian cancer cell lines (SKOV-3 and OVCAR-3) were treated with control (no treatment), 0.1 μM of the compound of Example 1, 10 μM of cisplatin, […], and the cell viability of SKOV-3 and OVCAR-3 was confirmed.

[7] = tested on: SKOV-3; experiment: Combination with cisplatin, cell viability; type: cell-based, human
Procedure: as §4

[8] = tested on: A549; experiment: Cell viability assay (WST-8), cytotoxicity on cancer cell lines; type: cell-based, human
Procedure: (§5) The cytotoxicity of the compound of Example 1 against various cancer cell lines was evaluated. Etoposide, sold as an anticancer agent, was used as a control group drug. Specifically, the cell viability assay was performed as follows. A549, SK-OV-3, SK-MEL-2, and HCT15 cell lines were seeded in 96 well plates at the density of 5×10^3 cells per well and cultured for 24 hours. Then, the plates were treated with the compound of Example 1 or etoposide at different concentrations, followed by culture for 24 and 48 hours. At the end of the culture, 100 μl of WST-8 solution was added to each well of the plate, and the absorbance was measured with a microplate reader using a 450 nm optical filter to measure the formazan produced by the reducing factors in living cells. • A549: human non-small cell lung cancer cells • SK-OV-3: human ovarian cancer cells • SK-MEL-2: human melanoma cells • HCT15: human colorectal cancer adenocarcinoma cells

[9] = tested on: HCT15; experiment: as above; type: cell-based, human; settings: HCT15, 24 and 48 hours, dose dependently
Procedure: as §5

[10] = tested on: SK-MEL-2; experiment: as above; type: cell-based, human; settings: SK-MEL-2, 24 and 48 hours, dose dependently
Procedure: as §5

[11] = tested on: SK-OV-3; experiment: as above; type: cell-based, human; settings: SK-OV-3, 24 and 48 hours, dose dependently
Procedure: as §5

[12] = tested on: MDA-MB-231; experiment: Breast cancer growth inhibition in xenograft nude mice; type: in vivo; settings: 25 mpk intravenously
Procedure: An experiment was performed to confirm the tumor inhibition of the compound of Example 1, the active ingredient of the pharmaceutical composition of the present invention, on a xenograft tumor sample of breast cancer cells (MBA-MB-231), a human-derived TNBC cell line.
Specifically, to confirm the effect of the compound of Example 1, which is the active ingredient of the pharmaceutical composition provided by the present invention, on the inhibition of breast cancer cell growth, an experiment was performed using 80 female 5-week-old xenograft Balb/c nude mice. The experimental xenograft Balb/c nude mice lacks T cells, the immune cells, were selected as an animal model suitable for transplanting human cancer cells. At the time of administration, animals within ±20% of the total average body weight were selected, and tumor growth was checked twice a week on the surface, and the size of the tumor was measured with a vernier caliper for 3 weeks. In addition, the compound of Example 1 was administered intravenously at a concentration of 25 mpk, and 30% PEG was used as a solvent.

[13] = tested on: MDA-MB-231; experiment: Number of mitotic figures / apoptotic bodies in xenograft tumor tissue (H&E); type: in vivo, BALB/c-nude mice; settings: for Mitotic index: sum of five areas at x400
Procedure: An experiment was performed to evaluate the tumor necrosis effect of the compound of Example 1 by measuring the number of apoptotic bodies in tumors and H&E staining of tumor tissues in BALB/c-nude mice injected with cancer cell lines. […] After calculating the sum of the measurements and expressing them as individual values, statistical comparative analysis was performed using GraphPad Prism 5. As a result of observing the apoptotic body, it was observed that the cells were shrunk and divided (blebs) and that empty space (hollow) surrounded the periphery. […] Since the frequency of mitotic figures in tumor tissue is related to the dividing ability of tumor cells, it can reflect the degree of malignancy of the tumor.

CNC(=O)c1cc(Oc2ccc(NC(=O)Nc3ccc(Cl)c(C(F)(F)F)c3)cc2)ccn1 [sorafenib, reference compound]
cell viability ([1]; Huh-7, 0.1 μM sorafenib alone): suppressed | cell viability ([2]; SK Hep1, 0.1 μM sorafenib alone): suppressed

O=C(Nc1n[nH]c2ncc(-c3cnn(C4CCNCC4)c3)cc12)c1ccc(F)cc1 [Example 3, 4-fluoro-N-(5-(1-(piperidin-4-yl)-1H-pyrazol-4-yl)-1H-pyrazolo[3,4-b]pyridin-3-yl)benzamide]
cell viability ([3]; BT-20, 24 hours): suppressed | cell viability ([4]; MDA-MB-231, 24 hours): suppressed | cell viability [5]: suppressed

N.N.[Cl][Pt][Cl] [cisplatin, reference compound]
cell viability ([6]; OVCAR-3, 1 μM of cisplatin alone): suppressed | cell viability ([7]; SKOV-3, 1 μM of cisplatin alone): suppressed

CN1CCN(c2ccc(C(=O)Nc3n[nH]c4ncc(Br)cc34)cc2)CC1 [Example 2, N-(5-bromo-1H-pyrazolo[3,4-b]pyridin-3-yl)-4-(4-methylpiperazin-1-yl)benzamide]
cell viability ([3]; BT20, 24 and 48 hours): inhibited the cell viability | cell viability ([4]; MDA-MB-231, 24 and 48 hours): inhibited the cell viability

c1nc(Nc2ccc(N3CCCC3)cc2)c2cc[nH]c2n1 [Example 1, N-(4-(pyrrolidin-1-yl)phenyl)-7H-pyrrolo[2,3-d]pyrimidin-4-amine]
toxicity to cancer cell line (cell viability) ([8]; A549, 24 and 48 hours, dose dependently): excellent toxicity | toxicity compared with etoposide ([8]; various cancer cell lines (A549, SK-OV-3, SK-MEL-2, HCT15)): equally or more effective than etoposide | toxicity to cancer cell line (cell viability) [9]: excellent toxicity | toxicity to cancer cell line (cell viability) [10]: excellent toxicity | toxicity to cancer cell line (cell viability) [11]: excellent toxicity | biological toxicity (change in body weight) ([12]; 3 weeks): no biological toxicity | cachexia phenomenon ([12]; 3 weeks): not observed | tumor growth (change in tumor size/volume) ([12]; vs CTL): significantly suppressed | tumor growth (change in tumor weight) ([12]; vs CTL): significantly suppressed | number of apoptotic bodies ([13]; T1 and T2 groups compared to NC, dose dependently): higher | Mitotic index ([13]; T1 group (2 times/week)): 25.5 ± 10.2 | Mitotic index ([13]; T2 group (3 times/week)): 20.8 ± 7.4 | cell viability ([6]; OVCAR-3, 0.1 μM Example 1 in combination with 10 μM cisplatin): further inhibited (synergistic effect) | cell viability ([6]; OVCAR-3, 0.1 μM alone): suppressed | cell viability ([7]; SKOV-3, 0.1 μM Example 1 in combination with 10 μM cisplatin): further inhibited (synergistic effect) | cell viability ([7]; SKOV-3, 0.1 μM alone): suppressed | cell viability ([1]; Huh-7, 5 μM Example 1 in combination with 0.1 μM sorafenib): further inhibited (synergistic effect) | cell viability ([1]; Huh-7, 5 μM alone): suppressed | cell viability ([2]; SK Hep1, 5 μM Example 1 in combination with 0.1 μM sorafenib): further inhibited (synergistic effect) | cell viability ([2]; SK Hep1, 5 μM alone): suppressed
